Experiment [1] deals with T1, KRAS-G12C/SOS1 (Homo sapiens, UniProt Q07889).
T1 construct: purchased Cisbio 63ADK000CB16PEG
T1 sequence (Q07889 1-1333): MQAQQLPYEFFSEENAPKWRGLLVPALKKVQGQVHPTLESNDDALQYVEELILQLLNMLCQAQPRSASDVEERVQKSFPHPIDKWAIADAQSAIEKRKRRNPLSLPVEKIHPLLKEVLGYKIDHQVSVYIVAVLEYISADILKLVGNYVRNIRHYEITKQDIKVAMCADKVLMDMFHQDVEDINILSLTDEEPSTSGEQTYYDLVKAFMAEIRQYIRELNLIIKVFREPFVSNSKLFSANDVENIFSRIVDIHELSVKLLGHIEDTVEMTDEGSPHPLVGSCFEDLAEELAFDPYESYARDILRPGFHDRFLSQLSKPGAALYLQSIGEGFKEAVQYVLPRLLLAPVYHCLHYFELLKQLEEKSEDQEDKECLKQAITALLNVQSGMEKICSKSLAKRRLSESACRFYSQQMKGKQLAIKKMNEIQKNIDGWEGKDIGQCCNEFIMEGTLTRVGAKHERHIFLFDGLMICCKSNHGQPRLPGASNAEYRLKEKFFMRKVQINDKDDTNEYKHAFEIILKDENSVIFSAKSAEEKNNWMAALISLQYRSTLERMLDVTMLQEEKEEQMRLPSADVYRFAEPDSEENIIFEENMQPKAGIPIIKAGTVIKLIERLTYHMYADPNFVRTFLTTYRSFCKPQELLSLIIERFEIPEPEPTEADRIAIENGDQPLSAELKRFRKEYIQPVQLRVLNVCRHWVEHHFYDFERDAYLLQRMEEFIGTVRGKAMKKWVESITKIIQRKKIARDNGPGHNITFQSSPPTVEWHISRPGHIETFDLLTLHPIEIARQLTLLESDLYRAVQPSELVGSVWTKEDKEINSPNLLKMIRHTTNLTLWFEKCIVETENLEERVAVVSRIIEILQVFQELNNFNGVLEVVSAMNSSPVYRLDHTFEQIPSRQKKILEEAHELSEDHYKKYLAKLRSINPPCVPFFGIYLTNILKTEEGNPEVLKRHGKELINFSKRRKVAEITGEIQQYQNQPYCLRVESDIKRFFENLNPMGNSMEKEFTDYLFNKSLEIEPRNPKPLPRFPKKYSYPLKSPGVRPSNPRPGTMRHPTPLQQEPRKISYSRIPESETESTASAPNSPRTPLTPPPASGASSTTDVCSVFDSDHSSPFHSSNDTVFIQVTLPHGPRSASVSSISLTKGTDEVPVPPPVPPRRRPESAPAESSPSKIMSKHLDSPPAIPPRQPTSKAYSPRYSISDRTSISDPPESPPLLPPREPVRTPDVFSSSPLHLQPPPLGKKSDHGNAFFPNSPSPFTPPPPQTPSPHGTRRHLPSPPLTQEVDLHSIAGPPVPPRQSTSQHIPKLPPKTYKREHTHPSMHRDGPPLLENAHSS
Put plainly: KRAS-G12C/SOS1 binding assay (HTRF). The following applies: inhibition of KRAS-G12C/SOS1 binding. The protocol:
Test Example 1: KRAS-G12C/SOS1 Binding Assay
The following method was used to determine the extent of inhibition of KRAS-G12C/SOS1 binding by the preferred compounds of the present invention under in vitro conditions. In this method, the competitive inhibition of KRAS-G12C/SOS1 binding by the preferred compounds was assayed by the homogeneous time-resolved fluorescence (HTRF) technology using the KRAS-G12C/SOS1 binding assay kit (Cisbio, 63ADK000CB16PEG).
The experimental procedures were as follows (refer to the kit instructions for details): the compounds of the present invention were each firstly dissolved in DMSO at a concentration of 20 mM, and then diluted in an equal gradient with a buffer in the kit, so that the final concentrations of the test compounds in the reaction system were in a range of 10000 nM-0.04 nM, and the final concentration of DMSO was 0.5%. 2 μL of the compounds were each incubated with 4 μL of 1×Tag1-SOS1, 4 μL of 1×Tag2-KRAS-G12C (containing 10 μM guanosine triphosphate, GTP) at 25° C. for 15 min. Then 5 μL of 1×Anti-Tag1-Tb3+ and 5 μL of 1×Anti-Tag2-XL665 were added to the reaction system, and the mixture was incubated on ice for 3 h. After the incubation, the fluorescence intensity of each well was measured at the excitation wavelength of 337 nm, the fluorescence intensity of each well was read at the emission wavelengths of 620 nm and 665 nm on a microplate reader EnVision (PerkinElmer, 2105) in an HTRF mode, and the Ratio value was calculated by the formula Ratio=(665 nm/620 nm)×[…]. The inhibition rates of the compounds at each concentration were calculated by comparing the fluorescence intensity ratio with that of the control group, and then nonlinear curve fitting was performed by GraphPad Prism 8 in the logarithmic concentration-inhibition rate to obtain the IC50 values of the compounds, as shown in Table 1.
(Time-resolved FRET reads energy transfer from a long-lived donor to a nearby acceptor.)

Experiment [2] deals with KRAS G12V mutant human lung adenocarcinoma cells NCI-H441. Briefly: 3D cell proliferation inhibition assay, NCI-H441. The format is cell-based. The conditions noted are these: NCI-H441, 168 h, 7 days, CTG. An excerpt:
(§1) Test Example 4: 3D Cell Proliferation Inhibition Assay
(§2) The inhibitory effect of the compounds on the proliferation of 3D cells was investigated on KRAS G12C mutant human non-small cell lung cancer cells NCI-H358 (ATCC or Stem Cell Bank, Chinese Academy of Sciences), KRAS G12D mutant human metastatic pancreatic adenocarcinoma cells AsPC-1 (ATCC), KRAS G12V mutant human lung adenocarcinoma cells NCI-H441 (ATCC), and KRAS G13D mutant human colorectal adenocarcinoma epithelial cells DLD-1 (ATCC). The specific procedures were as follows:
(§3) 200 nL of compound solution diluted in a gradient was added to corresponding microwells of a 384-well low-adsorption microwell plate (Corning, 3657) using an Echo sonic pipetting system (Labcyte, Echo 550), so that the final concentration of the test compound in the reaction system was in a range of 20000 nM-0.008 nM. Then 40 μL of cells at a certain density were added to the corresponding microplate. In addition to test wells for the test compounds, both a DMSO control well and a medium control well were set, with the DMSO control well containing DMSO and cells and the medium well containing only medium. […] The plate was incubated at room temperature for 30 min and read on a microplate reader EnVision using the chemiluminescence program. […]

Experiment [3] has as its system KRAS G13D mutant human colorectal adenocarcinoma epithelial cells DLD-1. Put plainly: 3D cell proliferation inhibition assay, DLD-1. The format is cell-based. The conditions noted are these: DLD-1, 168 h, 7 days, CTG.
Source text: as §1, §2, §3

The structures appear in SMILES notation.

As a reminder, the IC50 is the concentration needed to halve the response being measured. With `COc1cc2nc(C)nc(N[C@H](C)c3cc(-c4c(Cl)cccc4CN(C)C)cs3)c2cc1[C@H]1CC[C@H](C(=O)N2CCN(CC3CCC4(CC3)CCN(C(=O)c3ccc(Cl)c(N5CCC(=O)NC5=O)c3)CC4)CC2)CC1` [Example 1, 1-(2-chloro-5-(9-((4-((1R,4R)-4-(4-(((R)-1-(4-(2-chloro-6-((dimethylamino)methyl)phenyl)thien-2-yl)ethyl)amino)-7-methoxy-2-methylquinazolin-6-yl)cyclohexane-1-carbonyl)piperazin-1-yl)methyl)-3-azaspiro[5.5]undecane-3-carbonyl)phenyl)dihydropyrimidine-2,4(1H,3H)-dione], the half-maximal inhibitory concentration (IC50) in experiment [1] was not above 0.015 µM; in experiment [2], 0.05 to 0.1 µM; in experiment [3] it was 0.03 to 0.05 µM.

As for `COc1cc2nc(C)nc(N[C@H](C)c3cc(-c4c(Cl)cccc4CN(C)C)cs3)c2cc1[C@H]1CC[C@H](C(=O)N2CCC(CCOCC3CCN(C(=O)c4ccc(Cl)c(N5CCC(=O)NC5=O)c4)CC3)CC2)CC1` [Example 5, 1-(2-chloro-5-(4-((2-(1-((1R,4R)-4-(4-(((R)-1-(4-(2-chloro-6-((dimethylamino)methyl)phenyl)thien-2-yl)ethyl)amino)-7-methoxy-2-methylquinazolin-6-yl)cyclohexane-1-carbonyl)piperidin-4-yl)ethoxy)methyl)piperidine-1-carbonyl)phenyl)dihydropyrimidine-2,4(1H,3H)-dione], the results for the IC50 in experiment [1], in experiment [2] and in experiment [3] were not above 0.015 µM, not above 0.015 µM and 0.05 to 0.1 µM, respectively.
